Data taken from US20250064886A1, “CARDIOVASCULAR AND CEREBROVASCULAR DRUG AND USE THEREOF” (HANGZHOU ADAMERCK PHARMLABS INC., priority 2021, published 2025).
Marks after values point to notes of the source that are not given here.

Legend:
[1] = tested on: vascular endothelial-injury thrombosis model in zebrafish; assay: Preventative effect of compound (1) on vascular endothelial injury induced thrombosis in zebrafish (Example 3); type: in vivo; settings: for Cardiac erythrocyte staining intensity (pixels, mean ± SE): n = 10
Description: Experimental method: Wild-type AB strain zebrafish were treated with 4 μg/mL punatinib for 18 h to establish vascular endothelial-injury thrombosis model in zebrafish. 150 of 5 dpf wild-type AB strain zebrafish were randomly selected and placed in six-well plates with 30 fish per well (experimental group). The zebrafish were injected with compound (1) at a dose of 2.06 ng/tail, and 6.18 ng/tail, and the positive control drug acetylsalicylic acid was given by dissolving it in water with a concentration of 30 µg/mL, while the normal control group (i.e., zebrafish treated with standard dilution water) and the model control group were set up, and the volume of each well (experimental group) was 3 mL. Except for normal control group, the remaining experimental groups were all given Punatinib by dissolving it in water to induce vascular endothelial injury thrombosis model in zebrafish. The zebrafish were co-treated with compound (1) and punatinib for a period of time under incubation condition at 28° C., and then stained with o-dianisidine. After staining, 10 zebrafish were randomly selected from each group and photographed under the microscope. The intensity of cardiac erythrocyte staining in zebrafish was analyzed using NIS-Elements D 3.10 advanced image-processing software, and the preventative effect of compound (I) on vascular endothelial injury thrombosis was evaluated based on the statistical results of cardiac erythrocyte staining intensity. The preventative effect on thrombosis is calculated as follows: […]
Statistical analysis were performed using Analysis of Variance and Dunnett's t-test, and p<0.05 indicates a significant difference, providing a representative experimental plot.

[2] = tested on: rats with focal cerebral ischemia (MCAO)/reperfusion; assay: Preventative administration, cerebral ischemia-reperfusion injury MCAO/R in rats (Example 5); type: in vivo, rat; settings: preventative; for Cerebral infarction rate (%): tail vein 3 days
Description: Experimental method: SD rats were randomly divided into six groups, i.e., pseudosurgery group, model control group, positive control drug ozagre (6 mg/kg) group, and administration drug compound (1) high-dose (67.5 mg/kg) group, medium-dose (22.5 mg/kg) group, and low-dose (7.5 mg/kg) group. The administration group was pre-administered via tail vein injection, while the pseudosurgery group and model control group were given equal volumes of physiological saline once a day for 3 consecutive days. 10 minutes after the last administration, a rat MCAO/R model was established and performed reperfusion 2 hours post ischemia. 24 hours after MCAO reperfusion, the neurobehavioral scores of rats were performed to determine their neurological function; the cerebral infarction rate and cerebral water content in rats were determined using 2,3,5-triphenyltetrazolium chloride (TTC) staining method.

[3] = tested on: lipid ROS levels in Erastin-induced nerve cells; assay: Lipid ROS levels (C11-BODIPY probe) in Erastin-induced nerve cells (Example 8); type: cell-based, rat; settings: Erastin 50 μM
Description: (§1) Experimental method: Primary neuron cells were incubated in a medium containing Erastin (final concentration of 50 μM) for 24 hours, and then incubated in a medium containing different concentrations of the test drug and Erastin (final concentration of 50 μM) for another 24 hours. After incubation, Real time PCR was used to detect mRNA expression of GPX4 in each group of cells, CCK8 assay was used to detect cell viability in each group of cells, C11-BODIPY probe method was used to detect intracellular lipid ROS levels in each group of cells, and PGSK probe method was used to detect iron content in cells.
(§2) The experimental data were expressed in means±SD, and statistical differences between groups were determined using one-way ANOVA and Tukey's test, with p-values less than 0.05 considered significant.
After incubation, the C11-BODIPY probe method was used to detect the lipid ROS levels in each group of cells. The results were presented as Mean±SD. Compared with the control group, ***p<0.0001; compared with the model group, #p<0.05, ##p<0.01.

[4] = tested on: iron content in Erastin-induced neuronal cells; assay: Iron content (PGSK probe) in Erastin-induced neuronal cells (Example 8); type: cell-based, rat; settings: Erastin 50 μM
Description: as §1, §2
After incubation, the PGSK probe method was used to detect the intracellular iron content. The results were presented as Mean±SD. Compared with the control group, ***p<0.0001; Compared with the model group, #p<0.05, ##p<0.01.

GPX4 mRNA = GPX4 mRNA expression (real time PCR) in Erastin-induced neuronal cells (Example 8); type: cell-based, rat; settings: Erastin 50 μM
Description: as §1, §2
After incubation, real time PCR was used to detect the mRNA expression of GPX4 in each group of cells. The results were presented as Mean±SD. Compared with the control group, ***p<0.0001; Compared with the model group, #p<0.05, […].

[5] = tested on: vascular inflammation in high-glucose and high-fat zebrafish; assay: Regressive effect on vascular inflammation in high-glucose and high-fat zebrafish (Example 9); type: in vivo
Description: Experimental method: 360 tails of 5 dpf macrophage fluorescent zebrafish were randomly selected and placed in beakers with 30 tails in each beaker, compound (1), compound (3), and compound (5) were given intravenously, and the positive control group was given atorvastatin calcium by dissolving it in water at a concentration of 30 μg/mL, while the normal control group (fish farming water-treated zebrafish) and the model control group were set up, and the volume of each beaker (experimental group) was 25 mL. Except for the normal control group, all other groups were given high-lipids and high-sucrose feed by dissolving it in water. Compound (1), compound (3) and compound (5) group were co-treated with high-lipids and high-sucrose feed for 30 h. The treatment was carried out up to 9 dpf, and 10 zebrafish were randomly selected from each experimental group to collect the intensity of the macrophage fluorescence within the tail vein and around the tail vein of the zebrafish under fluorescence microscope, and the results of the statistical analysis were used to evaluate the regressive effect of compound (1), compound (3), compound (5) on zebrafish vascular inflammation in the high sugar and high fat model.

Compound: CC(=O)N[C@H](CSCC1OC2OC3C(CSC[C@@H](NC(C)=O)C(=O)[O-])OC(OC4C(CSC[C@@H](NC(C)=O)C(=O)[O-])OC(OC5C(CSC[C@@H](NC(C)=O)C(=O)[O-])OC(OC6C(CSC[C@@H](NC(C)=O)C(=O)[O-])OC(OC7C(CSC[C@@H](NC(C)=O)C(=O)[O-])OC(OC8C(CSC[C@@H](NC(C)=O)C(=O)[O-])OC(OC9C(CSC[C@@H](NC(C)=O)C(=O)[O-])OC(OC1C(O)C2O)C(O)C9O)C(O)C8O)C(O)C7O)C(O)C6O)C(O)C5O)C(O)C4O)C(O)C3O)C(=O)[O-].[Na+].[Na+].[Na+].[Na+].[Na+].[Na+].[Na+].[Na+] (stereo partly drawn) [Compound (1)]
- Thromboprophylactic effect (%) ([1]; 2.06 ng/tail): 83%
- Cardiac erythrocyte staining intensity (pixels, mean ± SE) ([1]; 2.06 ng/tail): 4601 ± 265 pixels
- Cardiac erythrocyte staining intensity (pixels, mean ± SE) ([1]; 2.06 ng/tail, listed as compound (1)): 4601 pixels
- Thromboprophylactic effect (%) ([1]; 6.18 ng/tail): 99%
- Cardiac erythrocyte staining intensity (pixels, mean ± SE) ([1]; 6.18 ng/tail): 5044 ± 345 pixels
- Cardiac erythrocyte staining intensity (pixels, mean ± SE) ([1]; 6.18 ng/tail, listed as compound (1)): 5044 pixels
- Cerebral infarction rate (%) ([2]; 7.5 mg/kg (low-dose)): 15.18 ± 4.74 %
- Behavioral score ([2]; 7.5 mg/kg): 2.00 ± 1.07
- Cerebral water content (%) ([2]; 7.5 mg/kg): 80.16 ± 1.03%
- Cerebral infarction rate (%) ([2]; 22.5 mg/kg (medium-dose)): 13.93 ± 6.99 %
- Behavioral score ([2]; 22.5 mg/kg): 1.87 ± 0.64
- Cerebral water content (%) ([2]; 22.5 mg/kg): 79.01 ± 1.27 %
- Cerebral infarction rate (%) ([2]; 67.5 mg/kg (high-dose)): 12.28 ± 10.29 %
- Behavioral score ([2]; 67.5 mg/kg): 1.50 ± 0.53
- Cerebral water content (%) ([2]; 67.5 mg/kg): 78.23 ± 1.84 %
- Lipid ROS levels (%) ([3]; 1 μM, control = 100, Mean±SD): 150.18 ± 6.05^ %
- Lipid ROS levels (%) ([3]; 2.5 μM): 142.58 ± 3.01^ %
- Lipid ROS levels (%) ([3]; 5 μM): 137.9 ± 6.72%
- Lipid ROS levels (%) ([3]; 10 μM): 132.33 ± 6.57^## %
- Lipid ROS levels (%) ([3]; 20 μM): 121.82 ± 5.9^## %
- Lipid ROS levels (%) ([3]; 40 μM): 114.13 ± 8.82^## %
- Iron content (PGSK probe) ([4]; 1 μM, control = 100, PGSK fluorescence, weaker = more iron): 61.06 ± 7.12
- Iron content (PGSK probe) ([4]; 2.5 μM): 66.81 ± 7.21
- Iron content (PGSK probe) ([4]; 5 μM): 71.85 ± 4.47
- Iron content (PGSK probe) ([4]; 10 μM): 77.52 ± 12.88^#
- Iron content (PGSK probe) ([4]; 20 μM): 82.16 ± 6.86^##
- Iron content (PGSK probe) ([4]; 40 μM): 86.69 ± 8.01^##
- Expression of GPX4 mRNA (GPX4 mRNA; 1 μM, control about 1.00, Mean±SD): 0.4845 ± 0.06^
- Expression of GPX4 mRNA (GPX4 mRNA; 2.5 μM): 0.5759 ± 0.07^
- Expression of GPX4 mRNA (GPX4 mRNA; 5 μM): 0.6469 ± 0.08^#
- Expression of GPX4 mRNA (GPX4 mRNA; 10 μM): 0.7093 ± 0.15^##
- Expression of GPX4 mRNA (GPX4 mRNA; 20 μM): 0.7664 ± 0.08^##
- Expression of GPX4 mRNA (GPX4 mRNA; 40 μM): 0.8503 ± 0.06^##
- Anti-inflammatory effect (%) ([5]; 222 ng/tail intravenous): 27*** %
- Fluorescence intensity of perivascular macrophage (pixels, Mean ± SE) ([5]; 222 ng/tail intravenous): 134308 ± 6117 pixels
- Anti-inflammatory effect (%) ([5]; 667 ng/tail intravenous): 37*** %
- Fluorescence intensity of perivascular macrophage (pixels, Mean ± SE) ([5]; 667 ng/tail intravenous): 116848 ± 5036 pixels
- Anti-inflammatory effect (%) ([5]; 2000 ng/tail intravenous): 41*** %
- Fluorescence intensity of perivascular macrophage (pixels, Mean ± SE) ([5]; 2000 ng/tail intravenous): 108154 ± 4723 pixels
